# Data: paper PMC8044163, “Vitamin D and lumisterol derivatives can act on liver X receptors (LXRs)” (Scientific Reports, 2021)
# System: murine dermal fibroblasts
# Experiment: RNA-Seq of newborn murine dermal fibroblasts
# Assay type: cell-based, mouse
# Conditions: 10^−7 M, 24 h
# Description: All animal studies followed guidelines outlined by the NIH Guide for the Care and Use of Laboratory Animals and protocols were approved by the Institutional Animal Care and Use Committee at the NIEHS or the UAB. […] Skin samples from newborn C57BL/6 mice were collected at the NIEHS. Dermal fibroblasts were isolated from the skin of newborn mice, 1–2 day old. Briefly, we followed the protocols described previously. The skin was washed in PBS, cut into smaller pieces and incubated in 2.4 U/ml of dispase II (Roche) overnight at 4 °C. The dermis was separated from the epidermis and incubated in 0.1% collagenase (Roche) at 4 °C overnight. […] Single cell suspension was prepared by pipetting and draining through a cell strainer. After centrifugation, cell pellets were suspended in DMEM medium containing 10% charcoal-stripped fetal bovine serum (cFBS), mouse fibroblasts growth factor (FGF) and 1% antibiotic, and inoculated into tissue culture dishes (Midwest Scientific, TPP). Cells, in early passages, from different mice were pooled together to provide representative samples for experiments. Fibroblasts were cultured in Petri dishes (10 cm in diameter) in DMEM and 10% cFBS and triplicate semi-confluent cultures were treated as described.
# Triplicate cultures of murine fibroblasts were used for RNA isolation (RNAeasy Micro kit, Qiagen), the RNA samples were combined for each condition and at least 200 ng of RNA for each sample was used to create libraries for RNA sequencing by BGI Americas Corporation Service (Cambridge, MA)[67]. Quality of RNA and its concentration were determined using Agilent 2100.
# The raw sequence FASTQ files were aligned to Gencode’s GRCm38 p4 Release M11 genome using STAR version 2.5.4b (parameters used: –outReadsUnmapped Fastx; –outSAMtype BAM SortedByCoordinate; –outSAMattributes All; –outFilterIntronMotifs RemoveNoncanonicalUnannotated)[69]. The abundance of transcripts was calculated from the alignments using Cufflinks version 2.2.1 (parameters used: –G; –L; –library-type fr-firststrand). Samples were merged using default parameters with Cuffmerge[70],[71]. The differential expression was calculated using Cuffdiff’s default parameters. The raw data have been deposited at the NCBI GEO (GSE145818).
structure (smiles),measurement,setting,value
"C=C1CCC(O)CC1=CC=C1CCCC2(C)C1CCC2C(C)(O)CC(O)CC(C)C (centres unmarked) [20,23(OH)2D3]",Adh7 expression level,,1.158
same,Adh7 log2(fold_change) vs control,,2.167
same,Aqp11 expression level,,0.9828
same,Aqp11 log2(fold_change) vs control,,2.131
same,Arid3b expression level,,0.2183
same,Arid3b log2(fold_change) vs control,,-3.968
same,Bicd1 expression level,,0.8132
same,Bicd1 log2(fold_change) vs control,,-1.4
same,Btc expression level,,0.8829
same,Btc log2(fold_change) vs control,,1.8593
same,Car9 expression level,,2.126
same,Car9 log2(fold_change) vs control,,-2.151
same,Cbs expression level,,0.2841
same,Cbs log2(fold_change) vs control,,-2.782
same,Ccl4 expression level,,0.1702
same,Ccl4 log2(fold_change) vs control,,-2.322
same,Cd68 expression level,,3.478
same,Cd68 log2(fold_change) vs control,,1.602
same,Cd200 expression level,,0.493
same,Cd200 log2(fold_change) vs control,,-1.526
same,Cherp expression level,,31.4407
same,Cherp log2(fold_change) vs control,,-2.561
same,Clec2g expression level,,0
same,Clec2g log2(fold_change) vs control,,-inf
same,Cnnm4 expression level,,3.148
same,Cnnm4 log2(fold_change) vs control,,-4.001
same,Cox15 expression level,,16.947
same,Cox15 log2(fold_change) vs control,,1.531
same,Cpa2 expression level,,0.3137
same,Cpa2 log2(fold_change) vs control,,-2.329
same,Ctrl expression level,,0.115
same,Ctrl log2(fold_change) vs control,,-3.153
same,Dcun1d1 expression level,,4.486
same,Dcun1d1 log2(fold_change) vs control,,-1.564
same,Defb42 expression level,,0.09112
same,Defb42 log2(fold_change) vs control,,-3.331
same,Dtx1 expression level,,0.6816
same,Dtx1 log2(fold_change) vs control,,-1.292
same,Ehf expression level,,0.1594
same,Ehf log2(fold_change) vs control,,-2.391
same,Ercc2 expression level,,13.0262
same,Ercc2 log2(fold_change) vs control,,-3.709
same,Erh expression level,,2.145
same,Erh log2(fold_change) vs control,,-1.557
same,Fmnl1 expression level,,0.08875
same,Fmnl1 log2(fold_change) vs control,,-3.4
same,Gys2 expression level,,0
same,Gys2 log2(fold_change) vs control,,-inf
same,Hist1h2ab expression level,,1.7305
same,Hist1h2ab log2(fold_change) vs control,,2.585
same,Hist1h2bg expression level,,0.5684
same,Hist1h2bg log2(fold_change) vs control,,-2
same,Hist1h2bh expression level,,0
same,Hist1h2bh log2(fold_change) vs control,,-inf
same,Hist1h4c expression level,,0
same,Hist1h4c log2(fold_change) vs control,,-inf
same,Isl1 expression level,,0.3239
same,Isl1 log2(fold_change) vs control,,-1.316
same,Krt19 expression level,,10.8799
same,Krt19 log2(fold_change) vs control,,1.0982
same,Larp1b expression level,,3.399
same,Larp1b log2(fold_change) vs control,,-2.948
same,Lhx6 expression level,,2.278
same,Lhx6 log2(fold_change) vs control,,-2.362
same,Lsm5 expression level,,1.07
same,Lsm5 log2(fold_change) vs control,,-1.322
same,M1ap expression level,,1.3491
same,M1ap log2(fold_change) vs control,,1.119
same,Med9os expression level,,0.7965
same,Med9os log2(fold_change) vs control,,-1.386
same,Nckipsd expression level,,11.1997
same,Nckipsd log2(fold_change) vs control,,1.42
same,Nr3c2 expression level,,0.3025
same,Nr3c2 log2(fold_change) vs control,,-1.869
same,Nr6a1 expression level,,0.323
same,Nr6a1 log2(fold_change) vs control,,-2.52
same,Ntrk3 expression level,,0.007819
same,Ntrk3 log2(fold_change) vs control,,-7.899
same,Parvg expression level,,0.4359
same,Parvg log2(fold_change) vs control,,-1.7705
same,Pde4dip expression level,,25.3974
same,Pde4dip log2(fold_change) vs control,,-7.279
same,Psd4 expression level,,0.1525
same,Psd4 log2(fold_change) vs control,,-3.368
same,Ptpa expression level,,177.146
same,Ptpa log2(fold_change) vs control,,1.413
same,Ptpn6 expression level,,0.3394
same,Ptpn6 log2(fold_change) vs control,,-5.148
same,Rnu3a expression level,,0
same,Rnu3a log2(fold_change) vs control,,-inf
same,Rpph1 expression level,,0.6606
same,Rpph1 log2(fold_change) vs control,,-1
same,Rsad1 expression level,,1.045
same,Rsad1 log2(fold_change) vs control,,-1.592
same,Saa1 expression level,,0
same,Saa1 log2(fold_change) vs control,,-inf
same,Samd12 expression level,,1.71
same,Samd12 log2(fold_change) vs control,,-1.081
same,Scn8a expression level,,0.1177
same,Scn8a log2(fold_change) vs control,,-2.776
same,Sgca expression level,,0.3824
same,Sgca log2(fold_change) vs control,,-1.697
same,Slc15a4 expression level,,15.7859
same,Slc15a4 log2(fold_change) vs control,,-1.861
same,Slc16a5 expression level,,0.2329
same,Slc16a5 log2(fold_change) vs control,,-1.992
same,Snhg9 expression level,,7.505
same,Snhg9 log2(fold_change) vs control,,-1.322
same,St7 expression level,,25.5959
same,St7 log2(fold_change) vs control,,-1.436
same,Stmn1 expression level,,6.591
same,Stmn1 log2(fold_change) vs control,,2.0805
same,Susd1 expression level,,1.936
same,Susd1 log2(fold_change) vs control,,1.474
same,Syt8 expression level,,0.7109
same,Syt8 log2(fold_change) vs control,,-2.1726
same,Syt12 expression level,,0.9907
same,Syt12 log2(fold_change) vs control,,-2.055
same,Tldc2 expression level,,0.1921
same,Tldc2 log2(fold_change) vs control,,-2.216
same,Tnnc2 expression level,,0.313
same,Tnnc2 log2(fold_change) vs control,,-1.361
same,Unc5c expression level,,0.1434
same,Unc5c log2(fold_change) vs control,,-2.931
same,Wdr17 expression level,,1.106
same,Wdr17 log2(fold_change) vs control,,-1.028
same,Zbtb18 expression level,,4.966
same,Zbtb18 log2(fold_change) vs control,,-3.168
same,Zfp618 expression level,,1.583
same,Zfp618 log2(fold_change) vs control,,-1.597
same,"number of genes downregulated, FC ≥ 2",,540
same,"number of genes upregulated, FC ≥ 2",,437
same,number of genes solely downregulated,FC ≥ 2,116 (11%)
same,number of genes solely upregulated,FC ≥ 2,193 (12.8%)
